Columns and labels:
[1] = test system: LXFL 529; assay: cells; details: Homo sapiens
[2] = test system: HCC-2998; assay: cells; details: Homo sapiens
[3] = test system: KM20L2; assay: cells; details: Homo sapiens
[4] = test system: Human tumor cell lines; assay: NCI in vitro screen, overall result; details: Tables I and II
[5] = test system: CCRF-CEM; assay: NCI in vitro screen, SRB percent growth, Leukemia
[6] = test system: M19-MEL; assay: NCI in vitro screen, SRB percent growth, Melanoma
[7] = test system: SK-MEL-2; assay: NCI in vitro screen, SRB percent growth, Melanoma
[8] = test system: SK-MEL-5; assay: NCI in vitro screen, SRB percent growth, Melanoma
[9] = test system: UACC-257; assay: NCI in vitro screen, SRB percent growth, Melanoma
[10] = test system: SF-268; assay: NCI in vitro screen, SRB percent growth, CNS Cancer
[11] = test system: SF-539; assay: as above
[12] = test system: COLO 205; assay: NCI in vitro screen, SRB percent growth, Colon Cancer
[13] = test system: KM12; assay: as above
[14] = test system: IGROV1; assay: NCI in vitro screen, SRB percent growth, Ovarian Cancer
[15] = test system: SK-OV-3; assay: as above
[16] = test system: CNS cancer cell lines; assay: NCI in vitro screen, overall result on CNS cancer cell lines; details: Tables I and II
[17] = test system: HOP-62; assay: NCI in vitro screen, SRB percent growth, Non-Small Cell Lung Cancer
[18] = LXFL 529, read-out: Percent Growth
[19] = HCC 2998, read-out: Percent Growth
[20] = KM-20L2, read-out: Percent Growth
[21] = Log10 Concentration -4.0, 100 µM
[22] = Log10 Concentration -7.0, 0.1 µM

Compound: COc1ccc2[nH]c3c(C)c4c(c(C)c3c2c1)CN(C)C=C4 [Formula VII]
- GI50 ([1]; LXFL 529): 0.129 µM
- CC50 ([1]; LXFL 529, read-out: LC-50): 29.1 µM
- activity at 0.01 µM [1, 18]: 66%
- activity at 0.1 µM [1, 18]: 54%
- activity at 1 µM [1, 18]: 14%
- activity at 10 µM [1, 18]: -38%
- activity at 100 µM [1, 18]: -64%
- IC (TGI) ([1]; LXFL 529, read-out: TGI): 1.88 µM
- GI50 ([2]; HCC 2998): 4.74 µM
- CC50 ([2]; HCC 2998, read-out: LC-50): 43.9 µM
- activity at 0.01 µM [2, 19]: 111%
- activity at 0.1 µM [2, 19]: 90%
- activity at 1 µM [2, 19]: 98%
- activity at 10 µM [2, 19]: 27%
- activity at 100 µM [2, 19]: -93%
- IC (TGI) ([2]; HCC 2998, read-out: TGI): 16.8 µM
- GI50 ([3]; KM-20L2): 3.63 µM
- CC50 ([3]; KM-20L2, read-out: LC-50): > 100 µM
- activity at 0.01 µM [3, 20]: 106%
- activity at 0.1 µM [3, 20]: 104%
- activity at 1 µM [3, 20]: 82%
- activity at 10 µM [3, 20]: 25%
- activity at 100 µM [3, 20]: -34%
- IC (TGI) ([3]; KM-20L2, read-out: TGI): 26.4 µM
- effect against many kinds of cancer [4]: effective against many kinds of cancer
- Percent Growth [5, 21]: -10%
- Percent Growth ([5]; Log10 Concentration -5.0): 29%
- Percent Growth ([5]; Log10 Concentration -6.0, 1 µM): 78%
- Percent Growth [5, 22]: 92%
- TGI ([5]; PG=0): 54.5 µM
- GI50 ([5]; PG=+50): 3.65 µM
- CC50 ([5]; read-out: LC-50, PG=-50): > 100 µM
- Percent Growth [6, 21]: -62%
- Percent Growth ([6]; Log10 Concentration -5.0): -36%
- Percent Growth ([6]; Log10 Concentration -6.0, 1 µM): 48%
- Percent Growth [6, 22]: 95%
- Percent Growth ([6]; Log10 Concentration -8.0): 117%
- TGI ([6]; PG=0): 3.7 µM
- GI50 ([6]; PG=+50): 0.899 µM
- CC50 ([6]; read-out: LC-50, PG=-50): 34.7 µM
- Percent Growth [7, 21]: -91%
- Percent Growth ([7]; Log10 Concentration -5.0): -23%
- Percent Growth ([7]; Log10 Concentration -6.0, 1 µM): 110%
- Percent Growth [7, 22]: 137%
- Percent Growth ([7]; Log10 Concentration -8.0): 125%
- TGI ([7]; PG=0): 6.69 µM
- GI50 ([7]; PG=+50): 2.83 µM
- CC50 ([7]; read-out: LC-50, PG=-50): 24.7 µM
- Percent Growth [8, 21]: -53%
- Percent Growth ([8]; Log10 Concentration -5.0): -53%
- Percent Growth ([8]; Log10 Concentration -6.0, 1 µM): 75%
- Percent Growth [8, 22]: 94%
- Percent Growth ([8]; Log10 Concentration -8.0): 99%
- TGI ([8]; PG=0): 3.85 µM
- GI50 ([8]; PG=+50): 1.56 µM
- CC50 ([8]; read-out: LC-50, PG=-50): 9.49 µM
- Percent Growth [9, 21]: -5%
- Percent Growth ([9]; Log10 Concentration -6.0, 1 µM): 108%
- Percent Growth [9, 22]: 113%
- Percent Growth ([9]; Log10 Concentration -8.0): 110%
- TGI ([9]; PG=0): 80.7 µM
- GI50 ([9]; PG=+50): 9.63 µM
- CC50 ([9]; read-out: LC-50, PG=-50): > 100 µM
- Percent Growth [10, 21]: -55%
- Percent Growth ([10]; Log10 Concentration -5.0): -45%
- Percent Growth ([10]; Log10 Concentration -6.0, 1 µM): 2%
- Percent Growth [10, 22]: 76%
- Percent Growth ([10]; Log10 Concentration -8.0): 91%
- TGI ([10]; PG=0): 1.1 µM
- GI50 ([10]; PG=+50): 0.223 µM
- CC50 ([10]; read-out: LC-50, PG=-50): 35 µM
- Percent Growth [11, 21]: -33%
- Percent Growth ([11]; Log10 Concentration -5.0): -43%
- Percent Growth ([11]; Log10 Concentration -6.0, 1 µM): 30%
- Percent Growth [11, 22]: 99%
- Percent Growth ([11]; Log10 Concentration -8.0): 116%
- TGI ([11]; PG=0): 2.6 µM
- GI50 ([11]; PG=+50): 0.518 µM
- CC50 ([11]; read-out: LC-50, PG=-50): > 100 µM
- Percent Growth [12, 21]: -72%
- Percent Growth [12, 22]: 91%
- Percent Growth ([12]; Log10 Concentration -8.0): 99%
- TGI ([12]; PG=0): 5.6 µM
- GI50 ([12]; PG=+50): 1.42 µM
- CC50 ([12]; read-out: LC-50, PG=-50): 37.1 µM
- Percent Growth [13, 21]: -86%
- Percent Growth ([13]; Log10 Concentration -6.0, 1 µM): 28%
- Percent Growth [13, 22]: 59%
- Percent Growth ([13]; Log10 Concentration -8.0): 78%
- TGI ([13]; PG=0): 2.32 µM
- GI50 ([13]; PG=+50): 0.194 µM
- CC50 ([13]; read-out: LC-50, PG=-50): 10.6 µM
- Percent Growth [14, 21]: -20%
- Percent Growth ([14]; Log10 Concentration -5.0): 14%
- Percent Growth ([14]; Log10 Concentration -6.0, 1 µM): 47%
- Percent Growth [14, 22]: 80%
- Percent Growth ([14]; Log10 Concentration -8.0): 105%
- TGI ([14]; PG=0): 25.3 µM
- GI50 ([14]; PG=+50): 0.819 µM
- CC50 ([14]; read-out: LC-50, PG=-50): > 100 µM
- Percent Growth [15, 21]: -23%
- Percent Growth ([15]; Log10 Concentration -5.0): 148%
- Percent Growth ([15]; Log10 Concentration -6.0, 1 µM): 167%
- Percent Growth [15, 22]: 159%
- Percent Growth ([15]; Log10 Concentration -8.0): 192%
- TGI ([15]; PG=0): 73.4 µM
- GI50 ([15]; PG=+50): 73.4 µM
- CC50 ([15]; read-out: LC-50, PG=-50): > 100 µM
- effect against CNS cancer cell lines [16]: particularly effective against CNS cancer cell lines
- Percent Growth [17, 21]: -81%
- Percent Growth ([17]; Log10 Concentration -5.0): -57%
- Percent Growth ([17]; Log10 Concentration -6.0, 1 µM): 14%
- Percent Growth [17, 22]: 106%
- Percent Growth ([17]; Log10 Concentration -8.0): 115%
- TGI ([17]; PG=0): 1.58 µM
- GI50 ([17]; PG=+50): 0.406 µM
- CC50 ([17]; read-out: LC-50, PG=-50): 7.89 µM
